pIC50: −log10 of the molar value. Where two headings read alike, the source gives them in different places.
Columns and labels:
Format in all cases: cell-based
[1] = test system: HCC827 cells (EGFR Exon19 del, non-small cell lung cancer cells); test: Cell viability assay (WST/CCK8), HCC827 cells; details: Homo sapiens, HCC827, 72 h, HCC827 (Exon19 Del), 72 hours, WST (CCK8), read-out: IC50 (half inhibitory concentration)
Outline: (§1)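 Plated 3 000 cells/well in complete RPMI1640 the day before dosing; controls were DMSO (negative) and EGFR TKIs (positive).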

[2] = test system: BT474 cells (HER2 positive breast cancer cells); test: Cell viability assay (CCK8), BT474 cells; details: Homo sapiens, BT-474, Table 10, BT474, 72 hours, read-out: IC50 (half inhibitory concentration)
Outline: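 HER2-overexpressing BT474 cells in RPMI1640 were exposed to compounds for 72 hours over 10 concentrations (3-fold dilution, top 10 μM). Viability was measured with CCK8 reagent against a DMSO control, and IC50 was taken from growth inhibition curves.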

[3] = test system: PC9 cells (EGFR Exon 19 del, non-small cell lung cancer cells); test: Cell viability assay (WST/CCK8), PC9 cells; details: Homo sapiens, PC-9, 72 hours, WST (CCK8), read-out: IC50 (half inhibitory concentration)
Outline: as §1

[4] = test system: PC9 DCT (Del19+T790M+C797S) cells; test: Cell viability assay, PC9 cells with EGFR triple mutation; details: Homo sapiens, PC-9; Table 9; PC9 (Del + T790M + C797S), EGFR triple mutations; read-out: IC50 (half inhibitory concentration)
Description: Construction of EGFR triple mutant cell line PC9 DCT (Dell9+T790M+C797S): The cDNA expressing human EGFR was cloned into pLVX vector, and exon 19 deletion mutation (746-750) and T790M mutation were introduced by point mutation and C797S mutation. Transferred into PC9 cells by lentiviral packaging. Cells stably expressing EGFR triple mutations were obtained by fluorescence screening.
The cDNA sequence expressing human EGFR was cloned into a pLVX vector (GFP^+), and then introduce the EGFR exon 19 deletion (746-750), exon 20 T790M and C797S mutations by were generated by site-directed mutagenesis. The PC9 cells were infected with lentivirus containing the indicated EGFR mutations, and the cells stably expressing EGFR triple mutation were obtained by fluorescence screening.
All of the half inhibitory concentrations (IC50) of these compounds of the present invention were determined with WST reagent from Fuyuan Biotec Company. The specific experiment procedures are as follows: Cancer cells were planted in 96-well-plate at the density of 3 000 cells per well with 100 μL RPMI1640 completed culture medium. In the next day, compounds with indicated concentrations were added to the cells, DMSO was used as the negative control and the EGFR TKIs were used to treat cells as the positive groups. After 72 hours drug treatment, cell viability was measured by using the WST reagent following the instructions. The growth inhibition curve of the compounds on cells were plotted by Prism GraphPad, and the compounds IC50 calculated from it.
The cell viability assays were taken to determine the anti-tumor activity of these indicated compounds in PC9 cells, which overexpressed Exon 19del+T790M+C797S triple mutant EGFR.

[5] = biological target: T1, EGFR (L858R+T790M) in H1975 cells (Homo sapiens, UniProt P00533, L858R/T790M); test: Western blot of EGFR protein level (degradation), H1975 cells; details: 16 hours; for EGFR degradation (EGFR level, western blot): H1975 cells, 1, 10, 50, 100, 500 nM; for DC50: H1975 cells, western blot
T1 construct: determined in H1975 cells with the EGFR L858R+T790M mutation; endogenous in cells; host or cells: H1975
T1 sequence (P00533 25-1210 T790M/L858R): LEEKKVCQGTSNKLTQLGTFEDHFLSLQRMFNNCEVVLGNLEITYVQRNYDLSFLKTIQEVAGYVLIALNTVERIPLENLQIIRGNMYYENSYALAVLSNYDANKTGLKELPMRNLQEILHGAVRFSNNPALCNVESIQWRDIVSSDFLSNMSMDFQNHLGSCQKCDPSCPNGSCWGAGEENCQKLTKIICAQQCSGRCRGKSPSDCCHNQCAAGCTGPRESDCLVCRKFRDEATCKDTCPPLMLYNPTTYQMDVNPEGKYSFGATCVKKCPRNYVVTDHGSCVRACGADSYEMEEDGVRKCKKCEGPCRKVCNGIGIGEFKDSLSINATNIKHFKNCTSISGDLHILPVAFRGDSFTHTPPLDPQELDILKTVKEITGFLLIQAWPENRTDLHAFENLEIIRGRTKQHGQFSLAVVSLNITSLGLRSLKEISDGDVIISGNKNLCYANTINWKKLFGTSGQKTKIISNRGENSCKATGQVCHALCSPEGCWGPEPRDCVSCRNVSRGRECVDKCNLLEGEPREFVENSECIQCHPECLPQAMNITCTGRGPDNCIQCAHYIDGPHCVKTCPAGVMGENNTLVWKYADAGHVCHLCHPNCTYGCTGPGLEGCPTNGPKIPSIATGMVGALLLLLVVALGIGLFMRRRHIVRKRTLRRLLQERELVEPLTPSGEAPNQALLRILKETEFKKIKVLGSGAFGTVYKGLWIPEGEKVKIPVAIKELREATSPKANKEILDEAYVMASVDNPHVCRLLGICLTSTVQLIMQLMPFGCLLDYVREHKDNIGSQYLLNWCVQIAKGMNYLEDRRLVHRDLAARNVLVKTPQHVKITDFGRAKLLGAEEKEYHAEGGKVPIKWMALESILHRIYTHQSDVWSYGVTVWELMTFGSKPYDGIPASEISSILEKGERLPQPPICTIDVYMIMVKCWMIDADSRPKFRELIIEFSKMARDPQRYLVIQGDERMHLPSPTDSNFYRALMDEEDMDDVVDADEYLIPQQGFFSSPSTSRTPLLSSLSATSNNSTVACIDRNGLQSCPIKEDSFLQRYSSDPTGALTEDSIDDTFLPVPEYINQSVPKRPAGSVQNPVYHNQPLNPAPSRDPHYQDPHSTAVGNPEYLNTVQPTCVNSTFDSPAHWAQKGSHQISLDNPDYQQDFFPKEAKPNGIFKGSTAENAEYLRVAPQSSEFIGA
Procedure: Cancer cells were planted in 12-well-plate at the density of 0.15 million cells per well with 1 mL RPMI1640 completed culture medium. Compounds with different concentrations (DMSO as a solution system, and 1 μL of compounds of different concentrations was added to 1 mL of the cell culture medium) were added to the cells planted one day before. 16 hours after treated, the medium was discarded and the cells were washed with precooled PBS. The cells were placed on ice and treated with RIPA protein lysis buffer containing halt protease and phosphatase inhibitor. After centrifugation at 10000 rpm at 4° C. for 10 minutes, the supernatant was collected. The same amount of proteins were added into 4×SDS loading buffer and heated at 95° C. for 5 minutes for denaturation, and the samples were stored at −20° C. after denaturation, or directly conducted protein electrophoresis. The 4-20% gradient preformed Electrophoretic gels were purchased from Kingsy. The electrophoresis tank and related components were purchased from Bio-rad company, and the electrophoresis condition was isobaric 120V for 2 hours. PVDF membrane was used for the transmembrane, and the whole transmembrane process was carried out on ice with a constant current of 0.4 amperes for an hour. The membrane was blocked with 5% skimmed milk dilution with TBST buffer. Refer to the corresponding antibody instructions for the specific steps of immunoblotting.
The degradation efficacy of the dacomitinib-based compounds on EGFR was determined in HCC827 and H1975 cell lines, which harboring EGFR Exon 19del and EGFR L858R+T790M mutations respectively.
In FIG. 2, concentration-dependent degradation assays were performed on non-small cell lung cancer cell line H1975 (T790M-mutant cell line, the most common mutation type of first-generation EGFR inhibitors). […] The DC50 of compounds SIAIS262032 and SIAIS262037 are both about 50 nM, which provides great potential for drug development to overcome drug resistance caused by EGFR T790M mutation.
The degradation efficacy of the canertinib-based compounds on EGFR was determined in H1975 cells with the EGFR L858R+T790M mutation.
The H1975 cells were treated with the PROTADs with different concentrations (1, 10, 50, 100, 500 nM) for 16 hours, and then the western blot assay was taken to estimate the EGFR levels of the cell lysates in each group. […] The DC50 of SIAIS262125 and SIAIS262182 are both less than 10 nM, much better than canertinib, which provides great potential for drug development to overcome drug resistance caused by EGFR T790M mutation.

[6] = test system: PC9BracA1 (EGFR Exon 19 del+T790M, non-small cell lung cancer cells); test: Cell viability assay (WST/CCK8), PC9Brac1 cells; details: PC9Brac1 (Ex19del + T790M), 72 hours, WST; read-out: IC50 (half inhibitory concentration)
Outline: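 Cells seeded at 3 000 per well in RPMI1640 complete medium, dosed next day with compounds at indicated concentrations (DMSO negative control, EGFR TKIs as positive control).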

[7] = Table 3, poziotinib-based compounds
[8] = Table 3, poziotinib-based compounds, PC9 (Exon 19 Del)

Question: With `COc1cc2ncnc(Nc3ccc(Cl)c(Cl)c3F)c2cc1OC1CCN(C(=O)CCSc2cccc3c2CN(C2CCC(=O)NC2=O)C3=O)CC1` (centres unmarked) [SIAIS219165, 3-(4-((3-(4-((4-((3,4-dichloro-2-fluorophenyl)amino)-7-methoxyquinazolin-6-yl)oxy)piperidin-1-yl)-3-oxopropyl)thio)-1-oxoisoindolin-2-yl)piperidine-2,6-dione] as the compound, how does the pIC50 [1, 7] read?
Answer: 7.64

Question: And the pIC50 [2]?
Answer: 8.57

Question: What about the pIC50 [3, 8] of the same compound?
Answer: 8.52

Question: What about the pIC50 [4] of the same compound?
Answer: 8.34

Question: How did the pIC50 [1, 7] turn out when `COc1cc2ncnc(Nc3ccc(Cl)c(Cl)c3F)c2cc1OC1CCN(C(=O)CCSc2cccc3c2C(=O)N(C2CCC(=O)NC2=O)C3=O)CC1` (centres unmarked) [SIAIS249015, 4-((3-(4-((4-((3,4-dichloro-2-fluorophenyl)amino)-7-methoxyquinazolin-6-yl)oxy)piperidin-1-yl)-3-oxopropyl)thio)-2-(2,6-dioxopiperidin-3-yl)isoindoline-1,3-dione] was run?
Answer: 7.34

Question: What about the pIC50 [2] of the same compound?
Answer: 7.06

Question: What about the pIC50 [3, 8] of the same compound?
Answer: 6.89

Question: And the pIC50 [4]?
Answer: 8.33

Question: What does the source list for `COc1cc2ncnc(Nc3ccc(Cl)c(Cl)c3F)c2cc1OC1CCN(C(=O)CSc2cccc3c2C(=O)N(C2CCC(=O)NC2=O)C3=O)CC1` (centres unmarked) [SIAIS249014, 4-((2-(4-((4-((3,4-dichloro-2-fluorophenyl)amino)-7-methoxyquinazolin-6-yl)oxy)piperidin-1-yl)-2-oxoethyl)thio)-2-(2,6-dioxopiperidin-3-yl)isoindoline-1,3-dione]?
Answer: pIC50 [1, 7]: 7.29; pIC50 [4]: 8.74

Question: `COc1cc2ncnc(Nc3ccc(Cl)c(Cl)c3F)c2cc1OC1CCNCC1` [Poziotinib derivative A (SIAIS219149), N-(3,4-dichloro-2-fluorophenyl)-7-methoxy-6-(piperidin-4-yloxy)quinazolin-4-amine] was tested. Which pIC50 [1, 7] did it give?
Answer: 8.15

Question: And the pIC50 [2]?
Answer: 7.09

Question: What about the pIC50 [3, 8] of the same compound?
Answer: 7.77

Question: And the pIC50 [4]?
Answer: 8.28

Question: `COc1cc2ncnc(Nc3ccc(Cl)c(Cl)c3F)c2cc1OC1CCN(C(=O)CNc2cccc3c2C(=O)N(C2CCC(=O)NC2=O)C3=O)CC1` (centres unmarked) [SIAIS219177, 4-((2-(4-((4-((3,4-dichloro-2-fluorophenyl)amino)-7-methoxyquinazolin-6-yl)oxy)piperidin-1-yl)-2-oxoethyl)amino)-2-(2,6-dioxopiperidin-3-yl)isoindoline-1,3-dione] was tested. Which pIC50 [1, 7] did it give?
Answer: 8.09

Question: And the pIC50 [2]?
Answer: 7.44

Question: And the pIC50 [3, 8]?
Answer: 7.42

Question: And the pIC50 [4]?
Answer: 8.62

Question: With `COc1cc2ncnc(Nc3ccc(F)c(Cl)c3)c2cc1NC(=O)/C=C/CN1CCC(N2CCN(C(=O)CCCCCCNc3cccc4c3C(=O)N(C3CCC(=O)NC3=O)C4=O)CC2)CC1` (centres unmarked) [SIAIS262037, (E)-N-(4-((3-chloro-4-fluorophenyl)amino)-7-methoxyquinazolin-6-yl)-4-(4-(4-(7-((2-(2,6-dioxopiperidin-3-yl)-1,3-dioxoisoindolin-4-yl)amino)heptanoyl)piperazin-1-yl)piperidin-1-yl)but-2-enamide] as the compound, how does the pIC50 [1] read?
Answer: 8.80

Question: What about the pIC50 [2] of the same compound?
Answer: 9.05

Question: What about the pIC50 ([3]; PC9 (Exon19 Del)) of the same compound?
Answer: 8.68

Question: And the “EGFR degradation (EGFR level, western blot)” value [5]?
Answer: obvious EGFR degradation efficacy

Question: What about the DC50 [5] of the same compound?
Answer: ~50 nM

Question: Which results are given for `COc1cc2ncnc(Nc3ccc(Cl)c(Cl)c3F)c2cc1OC1CCN(C(=O)CCCNc2cccc3c2C(=O)N(C2CCC(=O)NC2=O)C3=O)CC1` (centres unmarked) [SIAIS219179, 4-((4-(4-((4-((3,4-dichloro-2-fluorophenyl)amino)-7-methoxyquinazolin-6-yl)oxy)piperidin-1-yl)-4-oxobutyl)amino)-2-(2,6-dioxopiperidin-3-yl)isoindoline-1,3-dione]?
Answer: pIC50 [1, 7]: 7.69; pIC50 [4]: 8.41

Question: With `COc1cc2ncnc(Nc3ccc(F)c(Cl)c3)c2cc1NC(=O)/C=C/CN1CCC(N2CCN(C(=O)CCCCCSc3cccc4c3C(=O)N(C3CCC(=O)NC3=O)C4=O)CC2)CC1` (centres unmarked) [SIAIS262032, (E)-N-(4-((3-chloro-4-fluorophenyl)amino)-7-methoxyquinazolin-6-yl)-4-(4-(4-(6-((2-(2,6-dioxopiperidin-3-yl)-1,3-dioxoisoindolin-4-yl)thio)hexanoyl)piperazin-1-yl)piperidin-1-yl)but-2-enamide] as the compound, how does the pIC50 [1] read?
Answer: 8.48

Question: And the pIC50 [6]?
Answer: 6.36

Question: And the pIC50 ([3]; PC9 (Exon19 Del))?
Answer: 7.36

Question: What about the “EGFR degradation (EGFR level, western blot)” value [5] of the same compound?
Answer: obvious EGFR degradation efficacy

Question: And the DC50 [5]?
Answer: ~50 nM

Question: How did the pIC50 [1, 7] turn out when `COc1cc2ncnc(Nc3ccc(Cl)c(Cl)c3F)c2cc1OC1CCN(C(=O)CCCCNc2cccc3c2C(=O)N(C2CCC(=O)NC2=O)C3=O)CC1` (centres unmarked) [SIAIS219180, 4-((5-(4-((4-((3,4-dichloro-2-fluorophenyl)amino)-7-methoxyquinazolin-6-yl)oxy)piperidin-1-yl)-5-oxopentyl)amino)-2-(2,6-dioxopiperidin-3-yl)isoindoline-1,3-dione] was run?
Answer: 7.57

Question: What about the pIC50 [4] of the same compound?
Answer: 8.48

Source: patent US12564638B2 (SHANGHAITECH UNIVERSITY, priority 2019, dated 2026)
